Results as given in US7365053B2, “Selective N-acylation of A82846 glygopeptides analogs” (priority 2000, dated 2008).
In brackets after ≈: the same amount, converted by molar mass.

Experiments:
[1] = test system: vancomycin-sensitive enterococci; test: In vitro activity against enterococci, broth microdilution; format: cell-based, Enterococcus faecium and Enterococcus faecalis; details: representative vancomycin-sensitive enterococci (E. faecium and E. faecalis); BHI medium
Method: (§1) The compounds of the present invention have in vitro activity against Gram-positive pathogenic bacteria. The antibacterial activity of the present compounds is illustrated in Tables III and IV. The minimal inhibitory concentrations (MICs) were determined using a standard broth micro-dilution assay. Table IV presents a comparison of the activity of illustrative compounds against representative vancomycin-resistant and vancomycin-sensitive enterococci (Enterococcus faecium and Enterococcus faecalis), mean geometric MIC (mcg/mL), as determined by the standard broth microdilution assay.
(§2) Assays for antimicrobial activity were performed using microbroth susceptibility testing methods as described by the NCCLS (National Committee for Clinical Laboratories Standards. 1990. Approved standard M7-A2. Methods for dilution antimicrobial susceptibility testing for bacteria that grow aerobically, 2 ed., Villanova Pa.). Brain-heart infusion medium (BHI) was used for testing of enterococci, and NCCLS recommendations for medium were followed for other bacteria.

[2] = test system: vancomycin-resistant enterococci; test: as above; format: cell-based, Enterococcus faecium and Enterococcus faecalis; details: representative vancomycin-resistant enterococci (E. faecium and E. faecalis); BHI medium
Method: as §1, §2

[3] = test system: Enterococcus faecium 180-1; test: Broth micro-dilution MIC; format: cell-based; details: BHI medium
Method: as §1, §2

[4] = test system: Staphylococcus aureus X778; test: Broth micro-dilution MIC; format: cell-based
Method: as §1, §2

[5] = test system: Streptococcus pneumoniae P1; test: Broth micro-dilution MIC; format: cell-based
Method: as §1, §2

[6] = test system: Staphylococcus aureus SA1199A; test: Broth micro-dilution MIC; format: cell-based
Method: as §1, §2

[7] = test system: Staphylococcus aureus 491; test: Broth micro-dilution MIC; format: cell-based
Method: as §1, §2

[8] = test system: Staphylococcus aureus SA1199B; test: Broth micro-dilution MIC; format: cell-based
Method: as §1, §2

[9] = test system: Staphylococcus haemolyticus 415; test: Broth micro-dilution MIC; format: cell-based
Method: as §1, §2

[10] = test system: Enterococcus faecium 180; test: Broth micro-dilution MIC; format: cell-based; details: BHI medium
Method: as §1, §2

[11] = test system: Staphylococcus aureus 447; test: Broth micro-dilution MIC; format: cell-based
Method: as §1, §2

[12] = test system: Staphylococcus aureus S13E; test: Broth micro-dilution MIC; format: cell-based
Method: as §1, §2

[13] = test system: Staphylococcus aureus X400; test: Broth micro-dilution MIC; format: cell-based
Method: as §1, §2

[14] = test system: Staphylococcus epidermidis 270; test: Broth micro-dilution MIC; format: cell-based
Method: as §1, §2

[15] = test system: Staphylococcus haemolyticus 105; test: Broth micro-dilution MIC; format: cell-based
Method: as §1, §2

[16] = test system: Escherichia coli EC14; test: Broth micro-dilution MIC; format: cell-based
Method: as §1, §2

[17] = test system: Staphylococcus aureus SA1199; test: Broth micro-dilution MIC; format: cell-based
Method: as §1, §2

[18] = test system: Enterococcus faecalis 2041; test: Broth micro-dilution MIC; format: cell-based; details: BHI medium
Method: as §1, §2

[19] = test system: Staphylococcus aureus 446; test: Broth micro-dilution MIC; format: cell-based
Method: as §1, §2

[20] = test system: Staphylococcus aureus 489; test: Broth micro-dilution MIC; format: cell-based
Method: as §1, §2

[21] = test system: Enterococcus faecalis 276; test: Broth micro-dilution MIC; format: cell-based; details: BHI medium
Method: as §1, §2

[22] = test system: Streptococcus pyogenes C203; test: Broth micro-dilution MIC; format: cell-based
Method: as §1, §2

[23] = test system: Haemophilus influenzae RD; test: Broth micro-dilution MIC; format: cell-based
Method: as §1, §2

[24] = test system: Enterococcus gallinarum 245; test: Broth micro-dilution MIC; format: cell-based; details: BHI medium
Method: as §1, §2

Row | Compound | Mean geometric MIC, Vancomycin Sensitive Strains [1] [µg/mL] | Mean geometric MIC, Vancomycin Resistant Strains [2] [µg/mL] | MIC [3] | MIC [4] | MIC [5] | MIC [6] | MIC [7] | MIC [8] [µg/mL] | MIC [9] [µg/mL] | MIC [10] [µg/mL] | MIC [11] [µg/mL] | MIC [12] | MIC [13] | MIC [14] [µg/mL] | MIC [15] | MIC [16] [µg/mL] | MIC [17] [µg/mL] | MIC [18] | MIC [19] [µg/mL] | MIC [20] | further results
1 | CNC(CC(C)C)C(=O)NC1C(=O)NC(CC(N)=O)C(=O)NC2C(=O)NC3C(=O)NC(C(=O)NC(C(=O)O)c4cc(O)cc(O)c4-c4cc3ccc4O)C(OC3CC(C)(NC(=O)c4ccc(-c5ccc(Cl)cc5)cc4)C(O)C(C)O3)c3ccc(c(Cl)c3)Oc3cc2cc(c3OC2OC(CO)C(O)C(O)C2OC2CC(C)(N)C(O)C(C)O2)Oc2ccc(cc2Cl)C1O (centres unmarked) [Example 5] | 0.29 | 19 | ≦.06 μg/ml | 0.5 µg/mL (≈ 0.277 µM) | ≦.06 μg/ml | ≦.06 μg/ml | ≦.06 μg/ml | 0.25 (≈ 0.138 µM) | 8 (≈ 4.43 µM) | 1 (≈ 0.553 µM) | 2 (≈ 1.11 µM) | 0.5 µg/mL (≈ 0.277 µM) | ≦.06 μg/ml | 4 (≈ 2.21 µM) | 0.5 µg/mL (≈ 0.277 µM) | >64 | 0.5 (≈ 0.277 µM) | ≦.06 μg/ml | 0.5 (≈ 0.277 µM) | ≦.06 μg/ml | MIC [21]: ≦.06 μg/ml; MIC [22]: ≦.06 μg/ml; MIC [23]: >64 µg/mL; MIC [24]: 8 µg/mL (≈ 4.43 µM)
2 | CCCCCCCC(=O)NC1(C)CC(OC2c3ccc(c(Cl)c3)Oc3cc4cc(c3OC3OC(CO)C(O)C(O)C3OC3CC(C)(N)C(O)C(C)O3)Oc3ccc(cc3Cl)C(O)C(NC(=O)C(CC(C)C)NC)C(=O)NC(CC(N)=O)C(=O)NC4C(=O)NC3C(=O)NC2C(=O)NC(C(=O)O)c2cc(O)cc(O)c2-c2cc3ccc2O)OC(C)C1O (centres unmarked) [Example 9, 6′-N-octanoyl-A82846B] | 1.2 | >90 | 0.125 µg/mL (≈ 0.0727 µM) | 0.25 µg/mL (≈ 0.145 µM) | ≦.06 μg/ml | 0.125 µg/mL (≈ 0.0727 µM) | 0.125 µg/mL (≈ 0.0727 µM) | 0.5 (≈ 0.291 µM) | 16 (≈ 9.31 µM) | 32 (≈ 18.6 µM) | 2 (≈ 1.16 µM) | 1 µg/mL (≈ 0.582 µM) | 0.5 µg/mL (≈ 0.291 µM) | 2 (≈ 1.16 µM) | 0.25 µg/mL (≈ 0.145 µM) | >64 | 0.5 (≈ 0.291 µM) | 0.5 µg/mL (≈ 0.291 µM) | 1 (≈ 0.582 µM) | 0.125 µg/mL (≈ 0.0727 µM) | MIC [21]: 0.125 µg/mL (≈ 0.0727 µM); MIC [22]: ≦.06 μg/ml; MIC [23]: 64 µg/mL (≈ 37.2 µM); MIC [24]: 16 µg/mL (≈ 9.31 µM)
3 | CNC(CC(C)C)C(=O)NC1C(=O)NC(CC(N)=O)C(=O)NC2C(=O)NC3C(=O)NC(C(=O)NC(C(=O)O)c4cc(O)cc(O)c4-c4cc3ccc4O)C(OC3CC(C)(N)C(O)C(C)O3)c3ccc(c(Cl)c3)Oc3cc2cc(c3OC2OC(CO)C(O)C(O)C2OC2CC(C)(NC(=O)CCCCCCCc3ccccc3)C(O)C(C)O2)Oc2ccc(cc2Cl)C1O (centres unmarked) [Example 11] | 0.093 | 9.5 | ≦.06 μg/ml | 0.125 µg/mL (≈ 0.0696 µM) | ≦.06 μg/ml | ≦.06 μg/ml | 0.125 µg/mL (≈ 0.0696 µM) | 0.25 (≈ 0.139 µM) | 4 (≈ 2.23 µM) | 0.5 (≈ 0.279 µM) | 2 (≈ 1.11 µM) | 0.25 µg/mL (≈ 0.139 µM) | 0.5 µg/mL (≈ 0.279 µM) | 1 (≈ 0.557 µM) | ≦.06 μg/ml | >64 | 1 (≈ 0.557 µM) | ≦.06 μg/ml | 1 (≈ 0.557 µM) | 0.25 µg/mL (≈ 0.139 µM) | MIC [21]: 0.25 µg/mL (≈ 0.139 µM); MIC [22]: ≦.06 μg/ml; MIC [24]: 4 µg/mL (≈ 2.23 µM)
4 | CNC(CC(C)C)C(=O)NC1C(=O)NC(CC(N)=O)C(=O)NC2C(=O)NC3C(=O)NC(C(=O)NC(C(=O)O)c4cc(O)cc(O)c4-c4cc3ccc4O)C(OC3CC(C)(NC(=O)CCCCCCCc4ccccc4)C(O)C(C)O3)c3ccc(c(Cl)c3)Oc3cc2cc(c3OC2OC(CO)C(O)C(O)C2OC2CC(C)(N)C(O)C(C)O2)Oc2ccc(cc2Cl)C1O (centres unmarked) [Example 12] | 0.33 | 45 | ≦.06 μg/ml | ≦.06 μg/ml | ≦.06 μg/ml | ≦.06 μg/ml | ≦.06 μg/ml | 0.125 (≈ 0.0696 µM) | 8 (≈ 4.46 µM) | 2 (≈ 1.11 µM) | 2 (≈ 1.11 µM) | ≦.06 μg/ml | 0.125 µg/mL (≈ 0.0696 µM) | 2 (≈ 1.11 µM) | ≦.06 μg/ml | >64 | 0.25 (≈ 0.139 µM) | ≦.06 μg/ml | 0.125 (≈ 0.0696 µM) | ≦.06 μg/ml | MIC [21]: ≦.06 μg/ml; MIC [22]: ≦.06 μg/ml; MIC [24]: 8 µg/mL (≈ 4.46 µM)
5 | CCCCCCCC(=O)N(C)C(CC(C)C)C(=O)NC1C(=O)NC(CC(N)=O)C(=O)NC2C(=O)NC3C(=O)NC(C(=O)NC(C(=O)O)c4cc(O)cc(O)c4-c4cc3ccc4O)C(OC3CC(C)(N)C(O)C(C)O3)c3ccc(c(Cl)c3)Oc3cc2cc(c3OC2OC(CO)C(O)C(O)C2OC2CC(C)(N)C(O)C(C)O2)Oc2ccc(cc2Cl)C1O (centres unmarked) [Example 10, 1′-N-octanoyl-A82846B] | 2.3 | 90 | ≦.06 μg/ml | 0.5 µg/mL (≈ 0.291 µM) | ≦.06 μg/ml | 0.125 µg/mL (≈ 0.0727 µM) | 0.25 µg/mL (≈ 0.145 µM) | 0.5 (≈ 0.291 µM) | 16 (≈ 9.31 µM) | 32 (≈ 18.6 µM) | 1 (≈ 0.582 µM) | 0.5 µg/mL (≈ 0.291 µM) | 0.5 µg/mL (≈ 0.291 µM) | 0.5 (≈ 0.291 µM) | 1 µg/mL (≈ 0.582 µM) | >64 | 0.5 (≈ 0.291 µM) | 0.25 µg/mL (≈ 0.145 µM) | 1 (≈ 0.582 µM) | 0.25 µg/mL (≈ 0.145 µM) | MIC [21]: 0.25 µg/mL (≈ 0.145 µM); MIC [22]: ≦.06 μg/ml; MIC [24]: 2 µg/mL (≈ 1.16 µM)
6 | CC(C)CC(C(=O)NC1C(=O)NC(CC(N)=O)C(=O)NC2C(=O)NC3C(=O)NC(C(=O)NC(C(=O)O)c4cc(O)cc(O)c4-c4cc3ccc4O)C(OC3CC(C)(N)C(O)C(C)O3)c3ccc(c(Cl)c3)Oc3cc2cc(c3OC2OC(CO)C(O)C(O)C2OC2CC(C)(N)C(O)C(C)O2)Oc2ccc(cc2Cl)C1O)N(C)C(=O)CCCCCCCc1ccccc1 (centres unmarked) [Example 13] | 1.5 | >51 | ≦.06 μg/ml | 0.25 µg/mL (≈ 0.139 µM) | ≦.06 μg/ml | ≦.06 μg/ml | 0.125 µg/mL (≈ 0.0696 µM) | 0.25 (≈ 0.139 µM) | 8 (≈ 4.46 µM) | 8 (≈ 4.46 µM) | 0.5 (≈ 0.279 µM) | 0.5 µg/mL (≈ 0.279 µM) | 0.25 µg/mL (≈ 0.139 µM) | 0.25 (≈ 0.139 µM) | ≦.06 μg/ml | >64 | 0.5 (≈ 0.279 µM) | 0.25 µg/mL (≈ 0.139 µM) | 0.5 (≈ 0.279 µM) | 0.125 µg/mL (≈ 0.0696 µM) | MIC [21]: 0.25 µg/mL (≈ 0.139 µM); MIC [22]: ≦.06 μg/ml; MIC [24]: 2 µg/mL (≈ 1.11 µM)
